Source: PubChem BioAssay AID1996
Values after ≈ are worked out from the molar mass of the structure shown.

Settings: buffer; pH 7.4; 200.0 µM

SMILES | solubility kinetic
CCC1(Cc2ccccc2)NC(=O)c2ccccc2O1 (stereo unspecified) | 36.5 µg/mL (≈ 137 µM)
O=C(O)CC(CC(=O)Nc1ccc(Oc2ccccc2)cc1)c1ccccc1 (stereo unspecified) | > 56.3 µg/mL
CC1SCC(NC(=O)c2ccc(Cl)cc2)CS1 (stereo unspecified) | 39.2 µg/mL (≈ 136 µM)
CSCC[C@H](NC(=O)c1cccc(S(=O)(=O)N2CCCCCC2)c1)c1nc2ccccc2[nH]1 | 2.5 µg/mL (≈ 5.14 µM)
Cc1ccccc1N=C1c2ccccc2C(=O)C1[N+](=O)[O-] (stereo unspecified) | 31.7 µg/mL (≈ 113 µM)
COc1ccc(C(=O)c2nc3ccccc3n2C(C)C)cc1 | 22.3 µg/mL (≈ 75.8 µM)
Cl.NCc1ccc2[nH]c(=O)[nH]c2c1 | > 29.9 µg/mL
CC(CC(=O)O)CC(=O)Nc1cc(C(F)(F)F)cc(C(F)(F)F)c1 (stereo unspecified) | > 53.6 µg/mL
Cn1c2c(c(=O)c3ccccc31)CCCC2 | > 32 µg/mL
CCOc1ccccc1CNCc1ccc(F)cc1.Cl | 43.8 µg/mL
O=C(NCCOc1ccc(Cl)cc1)C1CCCCC1 | 14.9 µg/mL (≈ 52.9 µM)
FC(F)(F)c1cccc(N2CCN(C3CC4CCC3C4)CC2)c1 (stereo unspecified) | 1.4 µg/mL (≈ 4.32 µM)
COc1cc(OC)c(NC(=O)N2CCOCC2)cc1Cl | > 45.1 µg/mL
CCc1ccc(NC(=O)NC(C)c2ccc3c(c2)OCO3)cc1 (stereo unspecified) | 1 µg/mL (≈ 3.2 µM)
CCn1c(C)c(C(=O)Nc2ccc(OC)cc2)c2cc(OC)ccc21 | 0.4 µg/mL (≈ 1.18 µM)
COc1cc(OC)cc(C(=O)N2CC(=O)Nc3ccccc32)c1 | > 46.8 µg/mL
O=C(CCCOc1ccc(Cl)cc1Cl)Nc1ccccc1C(=O)O | > 55.2 µg/mL
Cc1ccc(O)c(Nc2ncnc3ccc([N+](=O)[O-])cc23)c1.Cl | 9.6 µg/mL
CCN(CC)C(=O)Nc1ccc(Br)cc1 | > 40.7 µg/mL
CC(C)NCC(O)c1ccc(NS(C)(=O)=O)cc1.Cl (stereo unspecified) | > 46.3 µg/mL
COc1ccc(NC(=O)CN2CCCCCC2)cc1OC | 32.2 µg/mL (≈ 110 µM)

SMILES | solubility kinetic
C=CCOC(=O)c1sc(NC(=O)c2ccc(OC)cc2)nc1C | < 0.4 µg/mL
Cc1ccnc(NC(=O)c2cc3cc(F)ccc3s2)c1 | 5.2 µg/mL (≈ 18.2 µM)
CN(C)C(=O)c1cc(C(=O)c2ccc(C(F)(F)F)cc2)c[nH]1 | 1.6 µg/mL (≈ 5.16 µM)
Cc1ccc(Cl)cc1NC(=O)CCC(=O)O | > 36.3 µg/mL
COc1ccc(/C=C/C(=O)N[C@H](C(=O)O)C(C)C)cc1 | > 41.6 µg/mL
CC1CCN(C(=O)c2ccc3c(c2)OCO3)CC1 | 36.9 µg/mL (≈ 149 µM)
C#CC[N+](C)(C)CC#Cc1ccc(C)cc1.[Br-] | > 43.8 µg/mL
Cc1ccccc1NC(=O)c1ccccc1N(C)S(=O)(=O)c1ccccc1 | 46.3 µg/mL (≈ 122 µM)
O=S(=O)(Nc1cccc2ccccc12)c1cccc2nonc12 | > 48.8 µg/mL
O=C(NCc1csc(-c2cccs2)n1)C1CCCCC1 | 3.9 µg/mL (≈ 12.7 µM)
Cc1ccc2nc(SCC3CCCCO3)[nH]c2c1 (stereo unspecified) | 37.4 µg/mL (≈ 143 µM)
O=C(CN1C(=O)C2CCCCC2C1=O)Nc1cccc(C(F)(F)F)c1 (stereo unspecified) | > 53.1 µg/mL
NC(=Nc1ccccc1)Nc1ccccc1 | 29.5 µg/mL (≈ 140 µM)
N#Cc1cc(-c2ccccc2)nc(N2CCNCC2)n1 | > 39.8 µg/mL
Cc1cccc(N2CN=c3s/c(=C\c4ccccn4)c(=O)n3C2)c1 | 5.3 µg/mL (≈ 15.8 µM)
Cc1nc(C)c(C(=O)OC(C)C(=O)Nc2ccc(F)cc2)s1 (stereo unspecified) | > 48.4 µg/mL
Cc1cccc(Oc2nc(-c3ccncc3)nc3ccccc23)c1 | < 0.2 µg/mL
CCOC(=O)c1sc(Nc2nc(C)cc(OC)n2)nc1C | 5.1 µg/mL (≈ 16.5 µM)
CCOc1ccc2[nH]c3c(N4CCc5ccccc5C4)ncnc3c2c1 | 1.2 µg/mL (≈ 3.48 µM)
Br.Nc1nc2c(s1)CCc1ccccc1-2 | 40.3 µg/mL
Cc1ccn2c(NC3CCCC3)c(-c3ccncc3)nc2c1 | 35.3 µg/mL (≈ 121 µM)

SMILES | solubility kinetic
O=C(Cn1c(=O)oc2ccccc21)Nc1ccc(F)c(F)c1 | 7.9 µg/mL (≈ 26 µM)
Nc1ccc(Nc2nc3ccccc3[nH]2)cc1 | 25.8 µg/mL (≈ 115 µM)
CSc1ncccc1C(=O)NCCc1ccccc1 | 37.2 µg/mL (≈ 137 µM)
O=C(O)Cn1c(=O)c2cccn2c2ccccc21 | > 36.3 µg/mL
CCOC(=O)c1cc(S(=O)(=O)NC2CCCCC2)cn1C | 43.9 µg/mL (≈ 140 µM)
O=C(NC1CC1)c1ccc(N2CCCCC2)c([N+](=O)[O-])c1 | > 43.4 µg/mL
CC(C)(C)c1ccc(OCCCn2ccnc2)cc1 | 25.5 µg/mL (≈ 98.7 µM)
Cc1cccc(OCCn2cnc(Cl)c2Cl)c1 | 27.7 µg/mL (≈ 102 µM)
COc1ccccc1CCC(=O)OCC(=O)NC1CCCC1 | > 45.8 µg/mL
Cc1cccc(N2CCc3c2nc2ccc(Br)cc2c3N)c1.Cl | 0.6 µg/mL
CC(C)Cn1cnc2c1c(=O)[nH]c(=O)n2Cc1ccccc1 | 32.7 µg/mL (≈ 110 µM)
O=C(COC(=O)c1cc(=O)[nH]c2ccccc12)NCc1cccs1 | > 51.4 µg/mL
O=Cc1c(NCc2ccco2)nc2ccccn2c1=O | 19.5 µg/mL (≈ 72.4 µM)
COc1ccccc1OCCNC(=O)CN1C(=O)NC2(CCCCC2)C1=O | > 56.3 µg/mL
CCOc1cc(N2CCOCC2)c(OCC)cc1NC(=O)CSc1ncccc1C(=O)O | > 69.2 µg/mL
CCCCCc1c(O)nc(SCCN(CC)CC)[nH]c1=O.Cl | > 52.5 µg/mL
Cl.O=C(OCCN1CCOCC1)c1ccccc1 | 39.6 µg/mL
O=C(COc1ccc(-n2ccnc2)cc1)Nc1cccc(Cl)c1 | 23.7 µg/mL (≈ 72.3 µM)
O=C(Cn1c(C(=O)O)cc2ccccc21)c1ccccc1 | 39.2 µg/mL (≈ 140 µM)
